Experimental findings from ChEMBL document CHEMBL1137599, “Discovery of uracil-based histone deacetylase inhibitors able to reduce acquired antifungal resistance and trailing growth in Candida albicans” (Bioorg Med Chem Lett, 2007) are described below.

Experiment [1] deals with Candida albicans. Description: Effect of compound on Candida albicans sensitivity to Fluconazole: Minimum inhibitory concentration required to inhibit the growth of 50% of isolates after 24h. Type of experiment: functional.
Experiment [2] has as its system Candida albicans. Description: Effect of compound on Candida albicans sensitivity to Fluconazole: Minimum inhibitory concentration required to inhibit the growth of 90% of isolates after 24h. Type of experiment: functional.
For experiment [3], the system named is Candida albicans. Description: microbe, parasite or virus in culture. As to conditions: 48 h. In kind it is functional.
Description: Effect of compound on Candida albicans sensitivity to Fluconazole: Minimum inhibitory concentration required to inhibit the growth of 50% of isolates after 48h.
The subject of experiment [4] is Candida albicans. Put plainly: Effect of compound on Candida albicans sensitivity to Fluconazole: Minimum inhibitory concentration required to inhibit the growth of 90% of isolates after 48h. Type of experiment: functional.
The target of another experiment is Histone deacetylase 1 (Mus musculus, UniProt O09106). Put plainly: Inhibition of mouse HDAC1 (mean).
Another experiment concerns the target T1, Histone deacetylase HD2 (Zea mays, UniProt Q94F81).
T1 sequence (Q94F81 whole entry): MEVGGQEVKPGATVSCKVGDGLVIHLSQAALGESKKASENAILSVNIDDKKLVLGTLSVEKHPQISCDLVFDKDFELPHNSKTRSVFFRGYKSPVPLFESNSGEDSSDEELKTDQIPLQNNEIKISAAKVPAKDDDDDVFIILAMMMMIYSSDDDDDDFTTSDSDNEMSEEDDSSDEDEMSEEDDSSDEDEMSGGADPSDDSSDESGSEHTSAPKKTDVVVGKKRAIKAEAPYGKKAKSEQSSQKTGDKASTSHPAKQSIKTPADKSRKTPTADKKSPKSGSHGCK
Description: Inhibition of maize HD2 (mean).

A further experiment concerns the target Histone deacetylase HD1B (Zea mays, UniProt Q9ZTP8). Put plainly: Inhibition of maize HD1-B (mean).
Experiment [5] has as its target Histone deacetylase HD1-A (Zea mays). Description: Inhibition of maize HD1-A (mean).

≈ marks a conversion by molar mass, not a printed value.

Sequence of Histone deacetylase HD1B (Q9ZTP8 whole entry): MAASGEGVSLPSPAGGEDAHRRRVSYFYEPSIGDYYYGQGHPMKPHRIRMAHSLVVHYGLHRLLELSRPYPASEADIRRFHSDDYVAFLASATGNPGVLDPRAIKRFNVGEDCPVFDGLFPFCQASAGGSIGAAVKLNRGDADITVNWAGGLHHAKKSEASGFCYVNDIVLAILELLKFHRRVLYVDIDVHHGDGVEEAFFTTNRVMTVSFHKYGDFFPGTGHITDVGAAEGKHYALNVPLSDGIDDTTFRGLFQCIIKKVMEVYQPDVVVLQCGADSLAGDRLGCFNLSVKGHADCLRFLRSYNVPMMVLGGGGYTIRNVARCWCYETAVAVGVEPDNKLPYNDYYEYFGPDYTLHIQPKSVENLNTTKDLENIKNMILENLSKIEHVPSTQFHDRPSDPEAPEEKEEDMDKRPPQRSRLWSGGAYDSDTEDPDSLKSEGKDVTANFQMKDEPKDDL
Sequence of Histone deacetylase 1 (O09106 whole entry): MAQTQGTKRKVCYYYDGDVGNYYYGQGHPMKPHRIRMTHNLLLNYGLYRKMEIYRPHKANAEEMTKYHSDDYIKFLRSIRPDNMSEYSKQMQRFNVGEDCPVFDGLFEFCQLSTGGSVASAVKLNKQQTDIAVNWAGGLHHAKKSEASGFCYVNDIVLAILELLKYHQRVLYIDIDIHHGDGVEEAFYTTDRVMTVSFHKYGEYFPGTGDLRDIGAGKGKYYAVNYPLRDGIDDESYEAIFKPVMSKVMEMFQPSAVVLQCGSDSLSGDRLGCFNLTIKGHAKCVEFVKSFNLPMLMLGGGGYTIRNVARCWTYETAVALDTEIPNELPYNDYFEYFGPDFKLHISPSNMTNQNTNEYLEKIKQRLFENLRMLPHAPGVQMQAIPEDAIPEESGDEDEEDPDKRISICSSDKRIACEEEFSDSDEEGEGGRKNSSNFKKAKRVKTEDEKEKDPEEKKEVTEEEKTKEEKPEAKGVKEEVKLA

Consider `O=C(CCCCSc1nc(-c2ccccc2)cc(=O)[nH]1)NO`, for which the MIC50 against Candida albicans [1] and against Candida albicans [3] was 0.5 µg/mL (≈ 1.57 µM) each time. Also, the figures for the MIC90 against Candida albicans [2] and against Candida albicans [4] were 4 µg/mL (≈ 12.5 µM) and 12 µg/mL (≈ 37.6 µM), respectively.
In the case of `O=C(CCCCSc1nc(-c2cccc(Cl)c2)cc(=O)[nH]1)NO`, the IC50 against Histone deacetylase 1 is 0.013 µg/mL (≈ 0.0367 µM); on Histone deacetylase HD2, 6 ng/mL (≈ 0.017 µM); against Histone deacetylase HD1B it was 4 ng/mL (≈ 0.0113 µM). Besides, the MIC50 turned out to be 0.44 µg/mL (≈ 1.24 µM) in the experiment with Candida albicans [1] and 1 µg/mL (≈ 2.83 µM) with Candida albicans [3]. Further, the MIC90 amounted to 3.42 µg/mL (≈ 9.67 µM) against Candida albicans [2] and 8 µg/mL (≈ 22.6 µM) in the experiment with Candida albicans [4].
Take `O=C(CCCCSc1nc(-c2ccc(Cl)cc2)cc(=O)[nH]1)NO`: the IC50 against Histone deacetylase 1 was 0.018 µg/mL (≈ 0.0509 µM); against Histone deacetylase HD2, 6 ng/mL (≈ 0.017 µM); on Histone deacetylase HD1B, 4 ng/mL (≈ 0.0113 µM); in experiment [5], 1 ng/mL (≈ 0.00283 µM). Moreover, the MIC50 against Candida albicans [1] came out at 0.5 µg/mL (≈ 1.41 µM); against Candida albicans [3], 1 µg/mL (≈ 2.83 µM). In addition, the MIC90 in the experiment with Candida albicans [2] is 2 µg/mL (≈ 5.65 µM); with Candida albicans [4], 16 µg/mL (≈ 45.2 µM).
With `O=C(CCCCCSc1nc(Cc2ccccc2)cc(=O)[nH]1)NO`, the figures for the MIC50 in the experiment with Candida albicans [1] and against Candida albicans [3] were 0.5 µg/mL (≈ 1.44 µM) and 0.625 µg/mL (≈ 1.8 µM), respectively. Moreover, the MIC90 with Candida albicans [2] came out at 4 µg/mL (≈ 11.5 µM); with Candida albicans [4], 12 µg/mL (≈ 34.5 µM).
For `OC(Cn1cncn1)(Cn1cncn1)c1ccc(F)cc1F` [FLUCONAZOLE], in that order: 1.45 µg/mL (≈ 4.73 µM), 2.5 µg/mL (≈ 8.16 µM), 3.6 µg/mL (≈ 11.8 µM) and 11 µg/mL (≈ 35.9 µM).
Take `O=C(CCCCCCC(=O)Nc1ccccc1)NO` [VORINOSTAT]: the figures for the IC50 against Histone deacetylase HD2 and against Histone deacetylase HD1B were 13 ng/mL (≈ 0.0492 µM) and 7 ng/mL (≈ 0.0265 µM), respectively.

In general, MIC90 refers to an inhibitory concentration at the 90% level, which refers to growth in some studies and to a panel of isolates in others. Higher therefore signals weaker potency. As a reminder, the IC50 is the point on the concentration scale where inhibition reaches its midpoint.
